Assay results published in BindingDB's records for doi:10.1021/jm5015814 (Slovak Academy of Sciences, 2015).

What follows are compounds tested against Aldehyde reductase AKR1A1 (Rattus norvegicus) (assay: Inhibition of Wistar rat kidney aldehyde reductase using D-glucuronate as substrate by spectrophotometry).
For `CCCNC(=O)CSc1nnc2c3cc(C)ccc3n(CC(=O)O)c2n1`, the IC50 was 19.6 µM. With `O=C(O)Cn1ccc2ccccc21` [CHEBI:72814] the IC50 was 80.2 µM. Work on `O=C(O)Cn1c2ccccc2c2nc3ccccc3nc21` yielded an IC50 of 24.8 µM. `CC(C)(C)C(=O)c1cn(CC(=O)O)c2ccccc12` gave an IC50 of 68.4 µM.
